ChEMBL document CHEMBL1151001, “Nonpeptide angiotensin II receptor antagonists: the discovery of DMP 581 and DMP 811” (Bioorg Med Chem Lett, 1994)

Assays:
[1] = Oral bioavailability; assay type: ADME, organism-based, Canis lupus familiaris; details: dog, in vivo
[2] = species: Rattus norvegicus; assay: Oral antihypertensive potency expressed as effective dose that lowers the mean arterial blood pressure by 30 mm Hg in renal hypertensive rats; assay type: functional
[3] = tested on: Rattus norvegicus; assay: Antihypertensive potency expressed as effective dose (iv) that lowers the mean arterial blood pressure by 30 mm Hg in renal hypertensive rats.; assay type: functional; details: Artery
[4] = Oral bioavailability in dog (dosed as neat powder in hard gelatin capsule); assay type: ADME, organism-based, Canis lupus familiaris; details: in vivo

Structure (SMILES) | ED30 [2] [mg/kg] | further results
CCCc1nc(CC)c(C(=O)O)n1Cc1ccc(-c2ccccc2-c2nnn[nH]2)cc1 | 0.03 | bioavailability [1]: 15%; ED30 [3]: 0.005 mg/kg
CCCc1nc(C(C)C)c(C(=O)O)n1Cc1ccc(-c2ccccc2-c2nn[nH]n2)cc1 | 0.11 | –
CCCc1nc(CC)c(C(=O)OCc2oc(=O)oc2-c2ccccc2)n1Cc1ccc(-c2ccccc2-c2nn[nH]n2)cc1 | 0.3 | –
CCCc1nc(CC)c(C(=O)OCc2oc(=O)oc2C(C)(C)C)n1Cc1ccc(-c2ccccc2-c2nn[nH]n2)cc1 | 0.1 | –
CCCc1nc(CC)c(C(=O)OC(C)OC(=O)OC)n1Cc1ccc(-c2ccccc2-c2nn[nH]n2)cc1 (configuration not stated) | 0.02 | –
CCCc1nc(CC(C)C)c(C(=O)O)n1Cc1ccc(-c2ccccc2-c2nn[nH]n2)cc1 | 0.87 | –
CCCc1nc(CCC)n(Cc2ccc(-c3ccccc3-c3nn[nH]n3)cc2)c1C=O | 0.3 | –
CCCc1nc(CC)c(C(=O)OCOC(=O)OC)n1Cc1ccc(-c2ccccc2-c2nn[nH]n2)cc1 | 0.03 | –
CCCc1nc(C)c(C=O)n1Cc1ccc(-c2ccccc2-c2nn[nH]n2)cc1 | 0.1 | –
CCCc1nc(C(C)(C)C)c(C(=O)O)n1Cc1ccc(-c2ccccc2-c2nn[nH]n2)cc1 | 0.35 | –
CCCc1nc(CCC)n(Cc2ccc(-c3ccccc3-c3nn[nH]n3)cc2)c1C(=O)O | 0.63 | –
CCCc1nc(C(C)(C)C)c(C=O)n1Cc1ccc(-c2ccccc2-c2nn[nH]n2)cc1 | 0.048 | –
CCCc1nc(CC)c(C(=O)OCOC(=O)OC(C)(C)C)n1Cc1ccc(-c2ccccc2-c2nn[nH]n2)cc1 | 0.02 | –
CCCc1nc(C(C)CC)c(C=O)n1Cc1ccc(-c2ccccc2-c2nn[nH]n2)cc1 (configuration not stated) | 0.33 | –
CCCc1nc(CC)c(C(=O)OCOC(=O)C(C)(C)C)n1Cc1ccc(-c2ccccc2-c2nn[nH]n2)cc1 | 0.03 | –
CCCc1nc(CC)c(C=O)n1Cc1ccc(-c2ccccc2-c2nnn[nH]2)cc1 | 0.027 | bioavailability [1]: ~100%; ED30 [3]: 0.11 mg/kg; bioavailability [4]: 70%
CCCCc1nc(CCC)n(Cc2ccc(-c3ccccc3-c3nn[nH]n3)cc2)c1C=O | 1 | –
CCCc1nc(CC)c(C(=O)OCOC(=O)C(C)C)n1Cc1ccc(-c2ccccc2-c2nn[nH]n2)cc1 | 0.03 | –
CCCc1nc(CC)c(C(=O)OCc2oc(=O)oc2C)n1Cc1ccc(-c2ccccc2-c2nn[nH]n2)cc1 | 0.1 | –
CCCc1nc(CC)c(C(=O)OC(C)OC(=O)OC(C)(C)C)n1Cc1ccc(-c2ccccc2-c2nn[nH]n2)cc1 (configuration not stated) | 0.3 | –
CCCc1nc(CC(C)C)c(C=O)n1Cc1ccc(-c2ccccc2-c2nn[nH]n2)cc1 | 0.29 | –
CCCc1nc(C(C)CC)c(C(=O)O)n1Cc1ccc(-c2ccccc2-c2nn[nH]n2)cc1 (configuration not stated) | 0.46 | –
CCCCc1nc(CCC)n(Cc2ccc(-c3ccccc3-c3nn[nH]n3)cc2)c1C(=O)O | 1.3 | –
CCCc1nc(C)c(C(=O)O)n1Cc1ccc(-c2ccccc2-c2nn[nH]n2)cc1 | 0.19 | –
CCCc1nc(C(C)C)c(C=O)n1Cc1ccc(-c2ccccc2-c2nn[nH]n2)cc1 | 0.13 | –
CCCc1nc(C(F)(F)C(F)(F)F)c(C(=O)O)n1Cc1ccc(-c2ccccc2-c2nnn[nH]2)cc1 | 0.21 | ED30 [3]: 0.042 mg/kg; bioavailability [4]: 12%
CCCCc1nc(Cl)c(C(=O)O)n1Cc1ccc(-c2ccccc2-c2nn[nH]n2)cc1 [CARBOXYLIC ACID METABOLITE] | 0.66 | ED30 [3]: 0.038 mg/kg
CCCCc1nc(Cl)c(CO)n1Cc1ccc(-c2ccccc2-c2nnn[nH]2)cc1 [LOSARTAN] | 0.59 | ED30 [3]: 0.8 mg/kg
